Laboratory results published in patent publication US20180214388A1, “COMPOSITION AND METHOD FOR REDUCING SCARRING” (priority 2015, published 2018).

Key:
[1] = test system: subjects with existing scars, incision after surgical removal; test: Caffeine cream for scar reduction or prevention after surgical excision (Example 3); type: in vivo, human; details: topical cream; both subjects felt caffeine effects
Source text: Two subjects with existing scars were chosen for the study.
Subject #1 presented with a skin growth on the left mid cheek.
Subject #2 presented with an older mid-forehead scar. […] The subject underwent a third revision of the scar.

[2] = test system: cytochrome P450 oxidase enzyme system; details: metabolized in the liver; cited from earlier work
[3] = test system: wound; test: Wound healing with application of resveratrol; type: in vivo
[4] = cited from earlier work

With Cn1c(=O)c2c(ncn2C)n(C)c1=O [caffeine, 1,3,7-trimethylpurine-2,6-dione] the “uptake from application site and distribution” value [1] was “rapidly taken from the application site and distributed throughout the body”.

In the case of Cn1c(=O)[nH]c2ncn(C)c2c1=O [Paraxanthine, 1,7-dimethyl-3H-purine-2,6-dione], the “share of caffeine metabolites” value [2] is given as 84%.

For Cn1c(=O)c2[nH]cnc2n(C)c1=O [theophylline, 1,3-dimethyl-7H-purine-2,6-dione, reference compound], the “share of caffeine metabolites” value [2] is given as 4%.

In the case of Oc1ccc(/C=C/c2cc(O)cc(O)c2)cc1 [resveratrol, trans-3,4′,5-trihydroxystilbene], the resulting scar [3] is listed as “attenuated scar”, the time to epithelialization [3] is listed as no more than 24 h and the solubility in water [4] is listed as “very low solubility”.
